Assay results reported in ChEMBL document CHEMBL4130375, “Design, synthesis and biological evaluation of 4-amidobenzimidazole acridine derivatives as dual PARP and Topo inhibitors for cancer therapy” (Eur J Med Chem, 2017).
The source made the active and inactive calls. The calls are words filed in the database; no cut-off is given here.

What was measured:
MCF7 [1] = assay: Induction of apoptosis in human MCF7 cells assessed as late apoptotic cells at 5 uM after 48 hrs by Annexin V-FITC/propidium iodide staining based flow cytometry (reference value: 0%); assay type: functional
MCF7 [2] = assay: Downregulation of CDK6 protein expression in human MCF7 cells up to 10 uM after 24 hrs by Western blot method; assay type: functional, cell-based
MCF7 [3] = assay: Upregulation of p27 protein expression in human MCF7 cells after 24 hrs by Western blot method; assay type: functional, cell-based
HCC1937 = assay: Antiproliferative activity against human HCC1937 cells harboring BRCA1 mutant after 72 hrs by MTT assay; assay type: functional, cell-based; conditions: HCC1937, 72 h
MCF7 [4] = assay: cells; conditions: Homo sapiens, MCF7, 72 h
MCF7 [5] = assay: Downregulation of CyclinA protein expression in human MCF7 cells up to 10 uM after 24 hrs by Western blot method; assay type: functional, cell-based
MCF7 [6] = assay: Induction of DNA double strand breaks in human MCF7 cells assessed as increase in gammaH2AX level after 24 hrs by Western blot analysis; assay type: functional, cell-based
MCF7 [7] = assay: Downregulation of CDK2 protein expression in human MCF7 cells up to 10 uM after 24 hrs by Western blot method; assay type: functional, cell-based
[8] = Intrinsic clearance in rat liver microsomes at 1.11 uM preincubated for 5 mins followed by NADPH addition by LC-MS/MS analysis; assay type: ADME, microsome; conditions: read-out: CLH
MCF7 [9] = assay: Downregulation of CyclinE protein expression in human MCF7 cells up to 10 uM after 24 hrs by Western blot method; assay type: functional, cell-based
MCF7 [10] = assay: Cell cycle arrest in human MCF7 cells assessed as accumulation at G0/G1 phase at 5 uM after 24 hrs by propidium iodide staining based flow cytometry (reference value: 17.67 +/- 1.25%); assay type: functional
MCF7 [11] = assay: Induction of apoptosis in human MCF7 cells after 48 hrs by Annexin V-FITC/propidium iodide staining based flow cytometry; assay type: functional, cell-based
[12] = Half life in mouse liver microsomes at 1.11 uM preincubated for 5 mins followed by NADPH addition by LC-MS/MS analysis; assay type: ADME, microsome
[13] = biological target: DNA topoisomerase 2-alpha (Homo sapiens) (UniProt P11388); assay: Poison activity at topoisomerase-2 in human MCF7 cells assessed as enzyme-DNA complex formation by measuring decrease in topoisomerase-2 protein expression after 24 hrs by Western blot analysis; assay type: cell-based
MCF7 [14] = assay: Cell cycle arrest in human MCF7 cells assessed as accumulation at G2/M phase at 1 uM after 24 hrs by propidium iodide staining based flow cytometry (reference value: 22.61 +/- 1.55%); assay type: functional
MCF7 [15] = assay: Induction of DNA double strand breaks in human MCF7 cells assessed as increase in 53BP1 level after 24 hrs by Western blot analysis; assay type: functional, cell-based
MCF7 [16] = assay: Upregulation of cleaved caspase-9 protein expression in human MCF7 cells after 24 hrs by Western blot method; assay type: functional, cell-based
MCF7 [17] = assay: Cell cycle arrest in human MCF7 cells assessed as accumulation at S phase at 1 uM after 24 hrs by propidium iodide staining based flow cytometry (reference value: 59.72 +/- 2.98%); assay type: functional
MCF7 [18] = assay: Induction of apoptosis in human MCF7 cells assessed as late apoptotic cells at 1 uM after 48 hrs by Annexin V-FITC/propidium iodide staining based flow cytometry (reference value: 0%); assay type: functional
[19] = Half life in human liver microsomes at 1.11 uM preincubated for 5 mins followed by NADPH addition by LC-MS/MS analysis; assay type: ADME, microsome
[20] = Half life in rat liver microsomes at 1.11 uM preincubated for 5 mins followed by NADPH addition by LC-MS/MS analysis; assay type: ADME, microsome
MCF7 [21] = assay: Cell cycle arrest in human MCF7 cells assessed as accumulation at G2/M phase at 10 uM after 24 hrs by propidium iodide staining based flow cytometry (reference value: 22.61 +/- 1.55%); assay type: functional
MCF7 [22] = assay: Induction of apoptosis in human MCF7 cells assessed as early apoptotic cells at 1 uM after 48 hrs by Annexin V-FITC/propidium iodide staining based flow cytometry (reference value: 0.108%); assay type: functional
MCF7 [23] = assay: Cell cycle arrest in human MCF7 cells assessed as accumulation at G0/G1 phase at 10 uM after 24 hrs by propidium iodide staining based flow cytometry (reference value: 17.67 +/- 1.25%); assay type: functional
MCF7 [24] = assay: Induction of apoptosis in human MCF7 cells assessed as early apoptotic cells at 10 uM after 48 hrs by Annexin V-FITC/propidium iodide staining based flow cytometry (reference value: 0.108%); assay type: functional
MCF7 [25] = assay: Induction of apoptosis in human MCF7 cells assessed as early apoptotic cells at 5 uM after 48 hrs by Annexin V-FITC/propidium iodide staining based flow cytometry (reference value: 0.108%); assay type: functional
Cytochrome P450 2D6 = Cytochrome P450 2D6 (Homo sapiens, UniProt P10635); assay: Inhibition of CYP2D6 in human liver microsomes preincubated for 10 mins followed by NADPH/substrate addition measured after 20 mins by LC-MS/MS analysis
MCF7 [26] = assay: Downregulation of full length PARP protein expression in human MCF7 cells up to 10 uM after 24 hrs by Western blot method; assay type: functional, cell-based
[27] = biological target: Poly [ADP-ribose] polymerase 1 (Homo sapiens, UniProt P09874); assay: Inhibition of PARP1 (unknown origin) assessed as reduction in biotinylated poly(ADP-ribose) incorporation on to histone protein by ELISA based colorimetric assay
[28] = biological target: DNA topoisomerase 2-alpha (Homo sapiens) (UniProt P11388); assay: Inhibition of human topoisomerase-2 at 100 uM using supercoiled pBR322 DNA as substrate after 10 to 15 mins by ethidium bromide staining based electrophoresis method
MCF7 [29] = assay: Induction of apoptosis in human MCF7 cells assessed as live cells at 1 uM after 48 hrs by Annexin V-FITC/propidium iodide staining based flow cytometry (reference value: 99.9%); assay type: functional
MCF7 [30] = assay: Antitumor activity against human MCF7 cells xenografted in mouse assessed as tumor growth inhibition at 20 to 40 mg/kg/day, ip measured on day 30 post initial treatment; assay type: functional, organism-based
MCF7 [31] = assay: Cell cycle arrest in human MCF7 cells assessed as accumulation at G0/G1 phase at 1 uM after 24 hrs by propidium iodide staining based flow cytometry (reference value: 17.67 +/- 1.25%); assay type: functional
MCF7 [32] = assay: Upregulation of p18 protein expression in human MCF7 cells after 24 hrs by Western blot method; assay type: functional, cell-based
HCT-116 = assay: Antiproliferative activity against human HCT116 cells expressing topoisomerase-1 after 72 hrs by MTT assay; assay type: functional, cell-based; conditions: HCT-116, 72 h

Sequence of DNA topoisomerase 2-alpha (Homo sapiens) (P11388 whole entry): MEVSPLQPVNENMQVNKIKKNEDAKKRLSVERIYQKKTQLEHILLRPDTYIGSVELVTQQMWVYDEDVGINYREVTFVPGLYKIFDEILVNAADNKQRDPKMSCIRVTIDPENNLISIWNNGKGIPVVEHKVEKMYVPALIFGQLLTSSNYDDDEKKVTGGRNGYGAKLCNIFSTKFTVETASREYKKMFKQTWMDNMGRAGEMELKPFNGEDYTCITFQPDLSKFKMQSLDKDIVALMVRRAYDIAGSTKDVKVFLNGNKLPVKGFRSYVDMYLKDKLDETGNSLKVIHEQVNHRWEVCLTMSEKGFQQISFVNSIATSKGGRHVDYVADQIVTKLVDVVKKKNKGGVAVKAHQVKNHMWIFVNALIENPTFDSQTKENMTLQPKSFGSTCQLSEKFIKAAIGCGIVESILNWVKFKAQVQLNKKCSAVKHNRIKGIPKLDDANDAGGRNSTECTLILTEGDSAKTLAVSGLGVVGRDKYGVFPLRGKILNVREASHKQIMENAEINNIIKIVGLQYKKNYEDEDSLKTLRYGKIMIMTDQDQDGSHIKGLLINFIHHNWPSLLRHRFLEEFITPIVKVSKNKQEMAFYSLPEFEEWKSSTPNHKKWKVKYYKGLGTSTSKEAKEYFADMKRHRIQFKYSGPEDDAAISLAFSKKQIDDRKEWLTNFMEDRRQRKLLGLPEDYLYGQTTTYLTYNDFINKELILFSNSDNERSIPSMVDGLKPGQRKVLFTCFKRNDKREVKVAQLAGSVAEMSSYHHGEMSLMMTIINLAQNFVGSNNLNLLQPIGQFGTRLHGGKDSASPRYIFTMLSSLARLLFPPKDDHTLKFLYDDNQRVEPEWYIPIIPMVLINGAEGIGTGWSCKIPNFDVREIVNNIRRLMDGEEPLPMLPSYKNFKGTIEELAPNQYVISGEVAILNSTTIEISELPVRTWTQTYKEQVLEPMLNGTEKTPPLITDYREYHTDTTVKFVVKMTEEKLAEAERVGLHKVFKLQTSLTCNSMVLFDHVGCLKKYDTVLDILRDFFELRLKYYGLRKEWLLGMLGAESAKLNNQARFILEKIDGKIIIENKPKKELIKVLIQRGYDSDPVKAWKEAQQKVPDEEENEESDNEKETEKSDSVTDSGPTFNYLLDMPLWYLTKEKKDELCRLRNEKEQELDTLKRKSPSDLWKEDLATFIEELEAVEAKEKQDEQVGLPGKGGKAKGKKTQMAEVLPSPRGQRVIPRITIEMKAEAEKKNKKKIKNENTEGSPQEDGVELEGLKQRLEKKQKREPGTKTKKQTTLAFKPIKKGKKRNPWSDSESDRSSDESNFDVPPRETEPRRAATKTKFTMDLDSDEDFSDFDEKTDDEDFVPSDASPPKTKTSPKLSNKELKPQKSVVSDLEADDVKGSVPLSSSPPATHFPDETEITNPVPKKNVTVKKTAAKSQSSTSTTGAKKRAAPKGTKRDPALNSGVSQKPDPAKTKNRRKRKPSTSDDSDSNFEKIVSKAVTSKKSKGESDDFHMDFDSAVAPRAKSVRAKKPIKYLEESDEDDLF
Sequence of Poly [ADP-ribose] polymerase 1 (P09874 whole entry): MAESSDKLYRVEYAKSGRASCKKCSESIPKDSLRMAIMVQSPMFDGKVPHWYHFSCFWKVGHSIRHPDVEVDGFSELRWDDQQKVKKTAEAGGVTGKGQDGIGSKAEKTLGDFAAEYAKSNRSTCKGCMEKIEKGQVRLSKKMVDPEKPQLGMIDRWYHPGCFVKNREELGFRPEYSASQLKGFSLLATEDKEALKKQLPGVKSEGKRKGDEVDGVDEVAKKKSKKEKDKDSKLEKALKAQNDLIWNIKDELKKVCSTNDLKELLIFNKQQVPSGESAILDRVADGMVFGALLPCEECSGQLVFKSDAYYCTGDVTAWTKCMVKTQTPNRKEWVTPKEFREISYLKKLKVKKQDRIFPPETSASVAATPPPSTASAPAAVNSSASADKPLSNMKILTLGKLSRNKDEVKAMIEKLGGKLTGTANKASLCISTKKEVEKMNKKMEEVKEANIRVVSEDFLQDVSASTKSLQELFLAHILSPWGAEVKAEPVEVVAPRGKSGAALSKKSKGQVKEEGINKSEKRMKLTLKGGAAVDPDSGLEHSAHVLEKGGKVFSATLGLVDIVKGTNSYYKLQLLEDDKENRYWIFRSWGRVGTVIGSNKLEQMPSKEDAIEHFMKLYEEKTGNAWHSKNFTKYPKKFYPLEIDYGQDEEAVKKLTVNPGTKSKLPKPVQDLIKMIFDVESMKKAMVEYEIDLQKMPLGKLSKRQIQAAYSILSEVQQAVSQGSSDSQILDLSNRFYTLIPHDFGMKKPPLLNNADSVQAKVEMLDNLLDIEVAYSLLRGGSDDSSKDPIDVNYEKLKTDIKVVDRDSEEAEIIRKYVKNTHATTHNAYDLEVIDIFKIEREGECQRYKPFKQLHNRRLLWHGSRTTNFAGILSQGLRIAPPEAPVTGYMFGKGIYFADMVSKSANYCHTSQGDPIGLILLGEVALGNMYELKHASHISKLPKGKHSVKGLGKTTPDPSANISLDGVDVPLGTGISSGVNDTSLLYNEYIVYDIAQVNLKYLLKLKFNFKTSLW
Sequence of Cytochrome P450 2D6 (P10635 whole entry): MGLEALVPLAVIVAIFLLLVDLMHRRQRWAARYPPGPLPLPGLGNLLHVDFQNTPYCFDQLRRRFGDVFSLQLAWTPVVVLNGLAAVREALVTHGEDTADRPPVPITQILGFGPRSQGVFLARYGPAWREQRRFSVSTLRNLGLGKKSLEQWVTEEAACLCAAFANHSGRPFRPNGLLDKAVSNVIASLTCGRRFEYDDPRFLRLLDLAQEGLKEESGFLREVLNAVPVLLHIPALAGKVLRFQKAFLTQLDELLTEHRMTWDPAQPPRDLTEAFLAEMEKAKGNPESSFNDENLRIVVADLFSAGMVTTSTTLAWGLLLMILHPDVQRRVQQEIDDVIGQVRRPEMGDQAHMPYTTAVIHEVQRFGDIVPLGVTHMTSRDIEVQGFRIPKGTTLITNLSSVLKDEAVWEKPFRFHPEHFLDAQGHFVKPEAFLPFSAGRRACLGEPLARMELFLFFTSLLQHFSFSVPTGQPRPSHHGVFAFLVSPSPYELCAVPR

With `Cc1cccc2c(Nc3cccc(-c4nc5c(C(N)=O)cccc5[nH]4)c3)c3ccccc3nc12` the Activity (MCF7 [1]) was 36.4%, the Activity (MCF7 [2]) was “Active” and the Activity (MCF7 [3]) was “Dose-dependent effect”. The IC50 (HCC1937) was 0.83 µM, the IC50 (MCF7 [4]) was 2.14 µM and the Activity (MCF7 [5]) was “Active”. For the same compound, the Activity (MCF7 [6]) was “Dose-dependent effect”, the Activity (MCF7 [7]) was “Active” and the microsomal CLint at 1.11 µM [8] was 28.4 µL/min/mg. The Activity (MCF7 [9]) was “Active”, the Activity (MCF7 [10]) was 43.62% and the Activity (MCF7 [11]) was “Dose-dependent effect”. The half-life at 1.11 µM [12] was 86.6 min, the Activity [13] was “Dose-dependent effect” and the Activity (MCF7 [14]) was 21.76%. The Activity (MCF7 [15]) was “Dose-dependent effect”, the Activity (MCF7 [16]) was “Dose-dependent effect” and the Activity (MCF7 [17]) was 58.27%. For the same compound, the Activity (MCF7 [18]) was 22.2%, the half-life at 1.11 µM [19] was 27.8 min and the half-life at 1.11 µM [20] was 34.8 min. The Activity (MCF7 [21]) was 10.83%, the Activity (MCF7 [22]) was 34.4% and the Activity (MCF7 [23]) was 58.27%. It also gave an Activity (MCF7 [24]) of 9.58%, an Activity (MCF7 [25]) of 23.9% and an IC50 (Cytochrome P450 2D6) of over 10 µM. For the same compound, the Activity (MCF7 [26]) was “Active”, the IC50 [27] was 0.45 µM and the inhibition [28] was “Active”. For the same compound, the Activity (MCF7 [29]) was 42.9%, the TGI (MCF7 [30]) was “Active” and the Activity (MCF7 [31]) was 19.96%. The Activity (MCF7 [32]) was “Dose-dependent effect” and the IC50 (HCT-116) was 1.43 µM.
